Consider one sequence from patent US9220746B2, “Compounds and methods for treating bone disorders and controlling weight” (The University of North Carolina at Chapel Hill, priority 2009, dated 2015).

The subject of assay [1] is Igfbp2−/− mice. In words: MicroCT of femurs and vertebrae (L5) after in vivo treatment of Igfbp2−/− mice. The arrangement: species or system mouse. The following applies: in vivo administration, summary statement. The method, then: Igfbp2^+/+ and Igfbp2^−/− mice were administered with PBS or PEG-HBD-peptide (50 μg/day) intraperitoneally 5 times per week from 6 to 9 weeks of age. Dual-energy x-ray absorptiometry was performed before the initiation of treatment. Mice were injected with 20 mg/kg calcein intraperitoneally 7 days and 2 days before sample collection.
Microarchitecture of distal trabecular bone and midshaft cortical bone was analyzed with femurs and vertebrae (L5) by MicroCT (MicroCT40)^10. Approximately 100 slices were measured just proximal to the distal growth plate, with an isotropic pixel size of 12 μm and slice thickness of 12 μm. Midshaft cortical bone thickness was analysis in a similar fashion using approximately 18 slices obtained at the exact midpoint of the femur.

Assay [2] concerns metacarpals. Put plainly: Metacarpal culture ex vivo (calcein incorporated area, length, width). Type of assay: cell-based, mouse. The method, then: FIG. 2. The heparin binding domain of IGFBP2 enhances periosteal expansion of metacarpals ex vivo. Metacarpals were collected from day 1 male mouse, and treated with osteogenic media with IGFBP2 (200 ng/ml) or the heparin-binding domain peptide (HBD-peptide) (2 μg/ml) in the presence or absence of IGF-1 (20 ng/ml) for 10 days. Bones were labeled with calcein (500 ng/ml) and calcein incorporated area was visualized (a) and longitudinal length of calcein incorporated area was quantified (b). Alcian blue and Von Kossa double staining was performed (c) and length and width of metacarpals were quantified (d). Statistical difference was analyzed by ANOVA followed by Bonferroni post-hoc test. Figures shown represent at least 3 independent experiments. Values are expressed as the mean±SEM (n=3-4). ^a; <0.05 vs PBS, ^b; <0.01 vs PBS, ^c; <0.001 vs PBS, ^d; <0.01 vs HBD, ^e; <0.05 vs IGF-I, ^f; <0.05 vs HBD.
Metacarpals were isolated from Igfbp2^−/− mice at 1-day old and incubated in DMEM containing 0.5% BSA, 50 μg/ml ascorbic acid and 1 mM β-glycerol phosphate for 10 days^54. Stimulants were added to culture media from day 1. At day 10, metacarpals were incubated in media containing calcein (500 ng/ml) for 2 hours for staining of calcium deposition, and images were obtained. Then, bones were fixed with 4% PFA, embedded in paraffin, and processed for Alcian blue and von Kossa double staining.

Assay [3] has as its system IGFBP-2 knockout mice. In words: Glucose tolerance test in IGFBP-2 knockout mice. The settings on record: knockout animals with impaired glucose tolerance; not significantly different from control mice. Type of assay: in vivo, mouse.
Assay [4] has as its system BP2−/− mice. In words: Flow cytometry of white blood cell populations in peripheral blood. The settings on record: BP2−/− male mice, intraperitoneal injection, vs PBS injected controls. Type of assay: in vivo, mouse. In general terms: A flow cytometer gives signals particle by particle.
For assay [5], the system named is Igfbp2−/− COBs and BMSCs. Put plainly: In vitro osteoblastogenesis of calvarial osteoblasts and bone marrow stromal cells (ALP, Alizarin Red staining). In kind it is cell-based, mouse. On the procedure: FIG. 1. The heparin-binding domain of IGFBP2 enhances osteoblastogenesis in vitro. a. Von Kossa staining was performed using tibia from 8 weeks old Igfbp2^+/+ and Igfbp2^−/− male mouse. b. Calvarial osteoblasts (COBs) were harvested from day 7 old male Igfbp2^+/+ and Igfbp2^−/− male mouse, and treated with osteogenic media in the presence of 2.5% FCS. At day 7, alkaline phosphatase (ALP) staining was performed. c and d. COBs and Bone marrow stromal cells (BMSCs) from Igfbp2^−/− mouse were treated with osteogenic media with pegylated heparin-binding domain peptide (PEG-HBD) in the presence of 10% FCS. ALP staining (day 7) and Alizarin Red staining (day 14) were performed (c). RNA was isolated at day 14 from BMSCs and expression of ALP, osteocalcin (OC) and Runx2 was analyzed by real-time PCR. Figures shown represent at least 3 independent experiments (n=3). Statistical difference was analyzed by student's t test. *; p<0.05.
FIG. 7. […] Igfbp2^−/− calvarial osteoblasts (COBs) were cultured with osteogenic media with PBS, control peptide (2 μg/ml) or heparin binding domain peptide (HBD-peptide) (2 μg/ml). Osteoblastogenesis was evaluated by Alizarin Red staining.
Neonatal calvarial osteoblasts were collected from 7-10 day old mice as previously described^53. Briefly, calvariae were digested 5 times with collagenase P and Trypsin. Cells released from digests 2 through 5 were collected as primary calvarial osteoblasts, and maintained in DMEM supplemented with 10% FCS and non-essential amino acids. Osteoblastogenesis of primary calvarial osteoblasts was carried out by treating cells with 4 mM β-glycerophosphate and 50 μg/ml ascorbic acid in αMEM. Bone marrow stromal cells (BMSCs) were harvested from femurs and tibias of 8 weeks old mice as described previously^10. Osteoblastogenesis of BMSCs was induced by the treatment with osteogenic media consisting of αMEM containing 10% FCS, 8 mM β-glycerophosphate, and 50 μg/ml ascorbic acid.

For assay [6], the system named is IGFBP-2 knockout mice. In words: Body weight and fat mass of IGFBP-2 knockout mice given the heparin binding peptide. Type of assay: in vivo, mouse. The following applies: IGFBP-2 −/− mice, 50 mcg intraperitoneally three days per week, 6 week treatment; for Fat Mass: by MRI. The method, then: Further experiments have been carried out in which the knockout mice and control animals have been administered the mouse homologue of the heparin binding peptide. The peptide was administered to 8 animals in each group. The knockout animals weighed 30.4±1.5 gm whereas the control animals weighed 25.2±1.1 gm. The knockout animals that received the active peptide weighed 24.9±1.3 gm. […] More importantly when absolute fat mass was analyzed by MRI, highly significant differences were also present. The knockout mice had 6.21±0.76 grams of fat. The control mice had 3.82±0.67 grams and the knockout mice administered the heparin binding peptide had 3.67±0.36 grams. Again these are highly significant differences.

The mark [7] stands for this setting: listed as heparin binding peptide.

“Also recorded” adds a separate entry of the source.

As to “KHLSLEEPKKLRP (IGFBP-2 heparin binding domain-containing peptide sequence) [HBD-peptide]”, the “bone mass phenotype of Igfbp2−/− mice (trabecular bone mass, osteoblast number)” value is “rescued the low bone mass phenotype” in assay [1]; “trabecular bone mass was rescued and osteoblast number increased” in assay [1] (listed as HBD). In addition, in assay [2] (10 days, IGFBP2 200 ng/ml, peptides 2 μg/ml, IGF-1 20 ng/ml, vs PBS), the “calcein incorporated area of metacarpals” value is “significantly enhanced”. The “width (and length) of metacarpals” value in assay [2] (10 days, IGFBP2 200 ng/ml, peptides 2 μg/ml, vs PBS) is “increased the width of metacarpals”. For the same sequence, the “periosteal expansion and growth of Igfbp2−/− metacarpal explants” value in assay [2] (ex vivo, summary statement) is “stimulated periosteal expansion and growth”. The glucose tolerance entry in assay [3] was “significantly improved”. Also, the “percentages of differentiated lymphoid and myeloid cells (monocytes, macrophages, neutrophils) in peripheral blood” value in assay [4] (listed as HBD) is “suppressed the percentages of mature monocytes, macrophages and neutrophils; also recorded: reduced the number of differentiated lymphoid and myeloid cells”; in assay [4] (listed as IGFBP-2 heparin binding domain (HBD) peptide) it was “reduced the percentage of macrophages”. Moreover, in assay [5] (2 μg/ml, osteogenic media), the “mineralization of Igfbp2−/− COBs (Alizarin Red) compared to PBS” value was “fully active”. Also, the “cell proliferation of osteoblasts and bone marrow stromal cells (alkaline phosphatase, alizarin red staining)” value in assay [5] (compared to full length (FL) IGFBP-2 and control peptide) is listed as “increased cell proliferation”. Further, the “bone mineralization phenotype of Igfbp2−/− bone marrow stromal cells and calvarial osteoblasts” value in assay [5] (in vitro, summary statement) is “rescued the low bone mineralization phenotype”. In addition, the figures for the “Fat Mass” value in assay [6] (listed as HBD) and in assay [6] (setting [7]) were 3.67 ± 0.36 gms and 3.67±0.36 gms, respectively. Further, the entries for the “Body Weight” value in assay [6] (listed as HBD) and in assay [6] (setting [7]) were 24.9 ± 1.3 gms and 24.9±1.3 gms, respectively.
